Patent US20090118225A1, “1-Methyl Nicotinamide and Derivatives for Treatment of Gastric Injury” (Cortria Corporation, priority 2007, published 2009)

How the values were obtained:
[1] = test system: WRS-induced gastric lesions; assay: Water immersion and restraint stress (WRS)-induced gastric lesion model; assay type: in vivo, Male Wistar rats; details: for effect on gastroprotection and the accompanying rise in the GBF induced by 1-MNA: summary of inhibitor experiments; for effect on the protection by 1-MNA with respect to gastric lesions / effect on the protective property of 1-MNA as measured by mean lesion number and plasma levels of IL-1β and TNFα: COX inhibitor pretreatment plus 1-MNA; for lesion numbers after COX inhibitor pretreatment before 1-MNA and WRS: indomethacin 5 mg/kg i.p., SC-560 5 mg/kg i.g. or rofecoxib 10 mg/kg i.g., versus absence of inhibitor
Procedure: (§1) Male Wistar rats, weighing 180-220 grams were fasted for 24 hours before subjecting to experimentation were employed in all studies. The animals were divided into groups for the following types of induced gastric lesions: ethanol-; aspirin (acetylsalicylic acid; ASA)-; stress-; and ischemia-reperfusion (I/R)-induced gastric lesions. In the first group, gastric lesions were produced by intragastric (i.g.) application of ethanol (75%), in the second group by i.g. application of acidified ASA (125 mg/kg), in the third group by animal exposure to 3.5 hours of water immersion (and restraint stress (WRS), in the fourth group by ischemia (by clamping celiac artery for 30 minutes followed by release of the clamp (reperfusion for 3 hours) (I/R).
(§2) The following experiments were designed to assess the therapeutic effect of 1-MNA on induced gastric lesions.
(§3) To assess gastric blood flow (GBF) laser Doppler flowmeter (Laserflo, model BPM 403A, Blood Perfusion Monitor, Vasamedics, St. Paul, Minn., USA) was used. The animals were anaesthetized with Vetbutal 50 mg/kg (Biowet, Pu^3awy, Poland), then the abdomen was opened and the stomach was exposed to assess the GBF. Blood flow was measured on anterior and posterior wall of stomach. The mean values of these measurements were calculated and expressed as percent change from value recorded in the intact mucosa.
(§4) To establish the number and area of gastric lesions, computerized planimetry (Morphomat, Carl Zeiss, Berlin, Germany) was used. Results are expressed as mm.
(§5) A venous blood sample was withdrawn from the vena cava into EDTA-containing vials in order to determine the plasma level of interleukin-1 beta (IL-1β) and tumor necrosis factor alpha (TNFα) by ELISA technique (BioSource International, Camarillo, Calif., USA).

gastric acid output = assay: Gastric acid output in rats having chronic gastric fistula (GF); assay type: in vivo
Procedure: The following experiments were designed to compare the effects of pretreatment with vehicle and 1-MNA or NA on stress-induced gastric lesions and the accompanying changes in gastric blood flow (GBF) and gastric tissue activities of MDA and SOD and plasma pro-inflammatory cytokine IL-1β and TNF-α levels. These sets of experiments were based on the observation that 1-MNA was able to reduce the gastric output in rats having chronic gastric fistula (GF). Rats with chronic GF were administered with 1-MNA, NA, or a vehicle control.

[2] = test system: diabetes and stress-induced gastric damage; assay: Combined diabetes and stress-induced gastric damage model; assay type: in vivo, rats
Source text: as §5
The next set of experiments was designed to assess the therapeutic effects of 1-MNA in a combined diabetic and stress-induced gastric damage model.
Insulin-dependent diabetes exerts various influences on gastric functions, such as acid secretion and gastric emptying. It has observed that aggravation of gastric mucosal ulcerogenic responses occurs in diabetic rats. Furthermore, deleterious influence of diabetes on the healing of gastric mucosal lesions has been observed in diabetic rats.

[3] = test system: ethanol-induced gastric lesions; assay: Ethanol-induced gastric lesion model; assay type: in vivo, Male Wistar rats
Procedure: as §1, §2, §3, §4

[4] = test system: ASA-induced gastric lesions; assay: Acidified ASA-induced gastric lesion model; assay type: in vivo, Male Wistar rats
Procedure: as §1, §2, §3, §4
For lipid peroxydation in investigated groups, the determination of the levels of malondialdehyde (MDA) and 4 hydroxynonenal (4-HNE) was carried out and their levels were used as indicators of lipid peroxidation. The procedure of MDA and 4-HNE determination was following: 600 mg of gastric mucosa was excised. Then […] 0.5 M BHT (butylated hydroxytoluene) was added in order to prevent sample oxidation. This sample was subsequently homogenized in 20 mM Tris for 15 sec. in pH 7.4. The homogenate was centrifuged (3,000 g at 4° C. for 10 minutes). Obtained clear supernatant was stored at −80° C. prior to testing. The colorimetric assay for lipid peroxidation (Bioxytech LPO-586, Oxis, Portland, USA) was used to determine the MDA and 4-HNE tissue concentration. This assay is based on the reaction of a chromogenic reagent N-methyl-2-phenylindole with MDA and 4-HNE at 45° C. This reaction yields a stable chromophore with maximal absorbance at 586 nm. This absorbance was measured by spectrophotometer Marcel s300, Warsaw, Poland. Results were expressed as nanomole per gram of tissue (nmol/g).
To determine activity of superoxide dismutase (SOD), a sample of gastric mucosa was taken, as described above. The calorimetric assay for assessment of SOD activity (Bioxytech, SOD-525, Oxis, Portland, USA) was used. This method is based on the SOD-mediated increase in the rate of autooxidation of tetrahydrobenzofluorene in aqueous alkaline solution to yield a chromophore with maximum absorbance at 525 nm. This absorbance was measured by spectrophotometer Marcel s300, Warsaw, Poland. Outcomes were expressed as units per gram of tissue (U/g).
The next set of experiments were designed to measure myeloperoxidase (MPO), malondialdehyde (MDA) and 4-hydroxynonenal (4-HNE), and superoxide dismutase (SOD) activities in rat stomach exposed to acidified ASA as indicators of the prognosis of gastric mucosa injury. To evaluate the inflammatory changes, myeloperoxidase (MPO) activity in the gastric mucosa was measured. MPO activity was measured by enzyme assay. MDA and 4-HNE in tissue are accepted as major products of lipid peroxidation and thus are considered as indicators of mucosa injury by reactive oxygen species (ROS). Organisms have several enzymatic systems that scavenge ROS and prevent their destructive action. The major antioxidative enzyme is superoxide dismutase (SOD).

[5] = test system: I/R-induced gastric lesions; assay: Ischemia-reperfusion (I/R)-induced gastric lesion model; assay type: in vivo, Male Wistar rats
Procedure: as §1, §2, §3, §4

acetic acid ulcer = assay: Acetic acid ulcer area and GBF in rats with and without rofecoxib; assay type: in vivo
Source text: The following experiments were designed to assess the effects of 1-MNA on acetic acid ulcer area and GBF in rats administered with and without a selective COX-2 inhibitor (e.g., rofecoxib).

[6] = WRS 3.5 hours, pretreatment 30 minutes prior
[7] = ethanol (75%) i.g., pretreatment
[8] = acidified ASA 125 mg/kg i.g., pretreatment
[9] = comparison of protective properties
[10] = ischemia 30 minutes, reperfusion 3 hours, pretreatment
[11] = WRS, administration of 16,16-dimethyl PGE2

COc1cc(CNC(=O)CCCC/C=C/C(C)C)ccc1O [capsaicin]
effect of capsaicin denervation on the protection induced by 1-MNA with respect to gastric lesions ([1]; WRS, capsaicin 125 mg/kg s.c.): significantly inhibit the protection induced by 1-MNA
effect on gastroprotection and the accompanying rise in the GBF induced by 1-MNA [1]: significantly attenuated

C[n+]1cccc(C(N)=O)c1 [1-MNA, 1-methyl nicotinamide]
dose dependence of the ability to inhibit gastric output (gastric acid output): increased with increasing dosage
suppression of gastric acid output compared with NA (gastric acid output; 1-MNA versus NA): more effectively than NA
gastric acid output (gastric acid output; 1-MNA, NA or vehicle control): decrease the gastric acid output
gastric blood flow [1, 6]: increased gastric blood flow
lesion number [1, 6]: decreased lesion number
plasma level of IL-1β ([1]; WRS model): decrease the plasma levels
plasma level of TNFα ([1]; WRS model): decrease the plasma levels
reduction of lesion number compared with NA ([1]; WRS, 1-MNA versus NA): more effectively than NA
mean lesion number [2]: reduce mean lesion number
plasma level of IL-1β [2]: decrease
plasma level of TNFα [2]: decrease
gastric blood flow [3, 7]: increased gastric blood flow
lesion number [3, 7]: decreased lesion number
increase of gastric blood flow compared with NA ([3]; ethanol model, 1-MNA versus NA): more effectively than NA
reduction of lesion number compared with NA ([3]; ethanol model, 1-MNA versus NA): more effectively than NA
mean lesion number in animals pretreated with either indomethacin, SC-560, or rofecoxib ([3]; ethanol model, presence of 1-MNA): significantly reduced
increase of gastric blood flow compared with NA ([4]; 1-MNA versus NA): more effectively than NA
reduction of lesion number compared with NA ([4]; 1-MNA versus NA): more effectively than NA
levels of 4-HNE in gastric mucosa ([4]; ASA-induced lesions): decreasing
levels of MDA in gastric mucosa ([4]; ASA-induced lesions): decreasing
levels of MPO in gastric mucosa ([4]; ASA-induced lesions): lowering the levels of MPO
levels of SOD in gastric mucosa ([4]; ASA-induced lesions): increasing the levels of SOD
gastric blood flow [4, 8]: increased gastric blood flow
lesion number [4, 8]: decreased lesion number
increasing GBF, compared with ranitidine, NO-ASA and SIN-1 [4, 9]: equally effective
increasing luminal NO, compared with ranitidine, NO-ASA and SIN-1 [4, 9]: equally effective
reducing mean lesion number, compared with ranitidine, NO-ASA and SIN-1 [4, 9]: equally effective
gastric blood flow [5, 10]: increased gastric blood flow
lesion number [5, 10]: decreased lesion number
GBF in the ulcer area (acetic acid ulcer; rats given rofecoxib): increase the GBF in the ulcer area
ulcer area (acetic acid ulcer; rats given rofecoxib): reduce the ulcer area in rats given rofecoxib
GBF in the ulcer area (acetic acid ulcer; without rofecoxib): increase the GBF in the ulcer area
ulcer area (acetic acid ulcer; without rofecoxib): reduce the ulcer area

N=C(NCCC[C@H](N)C(=O)O)N[N+](=O)[O-] [L-NNA, NG-nitro-L-arginine, reference compound]
effect on the therapeutic effects of 1-MNA on gastric lesions ([5]; L-NNA 20 mg/kg i.p.): reverse the therapeutic effects of 1-MNA

COc1ccc2c(c1)c(CC(=O)O)c(C)n2C(=O)c1ccc(Cl)cc1 [indomethacin]
effect on the protection by 1-MNA with respect to gastric lesions ([1]; WRS): significantly inhibited the protection by 1-MNA
effect on the protective property of 1-MNA as measured by mean lesion number and plasma levels of IL-1β and TNFα ([1]; WRS): significantly inhibited the protective property of 1-MNA
lesion numbers after COX inhibitor pretreatment before 1-MNA and WRS [1]: increase of lesion numbers
effect on gastroprotection and the accompanying rise in the GBF induced by 1-MNA [1]: significantly attenuated

COc1ccc(-n2nc(C(F)(F)F)cc2-c2ccc(Cl)cc2)cc1 [SC-560]
effect on the protection by 1-MNA with respect to gastric lesions ([1]; WRS): significantly inhibited the protection by 1-MNA
effect on the protective property of 1-MNA as measured by mean lesion number and plasma levels of IL-1β and TNFα ([1]; WRS): significantly inhibited the protective property of 1-MNA
effect on gastroprotection and the accompanying rise in the GBF induced by 1-MNA [1]: significantly attenuated

Oc1cc2c(cc1O)CN(C(=S)NCCc1ccc(Cl)cc1)CCC2 [capsazepine]
effect on the protective property of 1-MNA as measured by mean lesion number and gastric blood flow ([1]; WRS, capsazepine 5 mg/kg s.c.): reduced the protective property of 1-MNA
effect on gastroprotection and the accompanying rise in the GBF induced by 1-MNA [1]: significantly attenuated

calcitonin gene related peptide [CGRP]
effect on the deleterious effects of capsazepine ([1]; WRS, addition of CGRP): counter the deleterious effects of casazepine
effect on the deleterious effects of capsaicin-induced denervation ([1]; WRS, addition of CGRP to 1-MNA in denervated rats): counteracted the deleterious effects of capsaicin-induced denervation

CS(=O)(=O)c1ccc(C2=C(c3ccccc3)C(=O)OC2)cc1 [rofecoxib]
effect on the protection by 1-MNA with respect to gastric lesions ([1]; WRS): significantly inhibited the protection by 1-MNA
effect on the protective property of 1-MNA as measured by mean lesion number and plasma levels of IL-1β and TNFα ([1]; WRS): significantly inhibited the protective property of 1-MNA
lesion numbers after COX inhibitor pretreatment before 1-MNA and WRS [1]: increase of lesion numbers
effect on gastroprotection and the accompanying rise in the GBF induced by 1-MNA [1]: significantly attenuated
number of lesions after COX inhibitor pretreatment in the absence of 1-MNA ([3]; indomethacin 5 mg/kg i.p., SC-560 5 mg/kg i.g. or rofecoxib 10 mg/kg i.g., versus no inhibitor): increased the number of lesions

CCCCC(C)(C)[C@H](O)/C=C/[C@H]1[C@H](O)CC(=O)[C@@H]1C/C=C\CCCC(=O)O [16,16-dimethyl PGE2]
gastric damage induced by either indomethacin, SC-560, or rofecoxib [1, 11]: successful in preventing the gastric damage
mean lesion number [1, 11]: sufficient to decrease the mean lesion number
